According to patent US10184933B2, “Compositions, systems and methods for gene expression noise drug screening and uses thereof” (priority 2013, dated 2019):
Counter-ions that a name gives are not always drawn. Like-named read-outs stand apart in the source and are kept apart here.

Assays:
HIV-1 LTR promoter = type: cell-based
[1] = system: latent HIV-1 in JLat 8.6 cells; type: cell-based
[2] = Pharmakon 1600 library, 10 uM, 24 hours, FIG. 10
[3] = with one or more of PMA, prostratin, TNFα, and bryostatin, FIG. 11

Molecule | identified as variability enhancer (VE) in noise screen (HIV-1 LTR promoter; [2]) | synergy in reactivation of HIV-1 latency [1] | identified as variability enhancer (VE) in noise screen (HIV-1 LTR promoter) | synergy in reactivation of HIV-1 latency [1, 3] | identified as variability suppressor (VS) in noise screen (HIV-1 LTR promoter; Pharmakon 1600 library, 10 uM, 24 hours, FIG. 12)
CCCCC(CC)COc1ccc(-c2nc(-c3ccc(OC)cc3)nc(-c3ccc(OCC(CC)CCCC)cc3O)n2)c(O)c1 (centres unmarked) [V98, bemotrizinol] | variability enhancers | synergized | – | – | –
C#CCN(C)Cc1ccccc1 [V61, Pargyline hydrochloride] | variability enhancers | synergized | – | – | –
CNC(C)C(O)c1ccccc1 (centres unmarked) [V87, racephedrine hydrochloride] | variability enhancers | synergized | – | – | –
Cc1cc(C(C#N)c2ccc(Cl)cc2)c(Cl)cc1NC(=O)c1cc(I)cc(I)c1O (centres unmarked) [V34, closantel] | variability enhancers | synergized | – | – | –
O=C(O)CCCc1ccccc1 [V59, phenylbutyric acid] | – | synergized | variability enhancers | – | –
CC(C)c1c(C(=O)Nc2ccccc2)c(-c2ccccc2)c(-c2ccc(F)cc2)n1CC[C@@H](O)C[C@@H](O)CC(=O)[O-].CC(C)c1c(C(=O)Nc2ccccc2)c(-c2ccccc2)c(-c2ccc(F)cc2)n1CC[C@@H](O)C[C@@H](O)CC(=O)[O-].[Ca+2] [V20, atorvastatin calcium] | – | synergized | variability enhancers | – | –
NCCc1cc(O)c(O)cc1O [V25, oxidopamine hydrochloride] | variability enhancers | synergized | – | – | –
CC(C)(CO)[C@@H](O)C(=O)NCCCO [V90, dexpanthenol] | variability enhancers | synergized | – | – | –
CN1CCCN=C1COC(=O)C(O)(c1ccccc1)C1CCCCC1 (centres unmarked) [V47, oxyphencyclimine hydrochloride] | variability enhancers | synergized | – | – | –
CC[C@H]1OC(=O)[C@H](C)[C@@H](O[C@H]2C[C@@](C)(OC)[C@@H](O)[C@H](C)O2)[C@H](C)[C@@H](O[C@@H]2O[C@H](C)C[C@H](N(C)C)[C@H]2O)[C@](C)(O)C[C@@H](C)CN(C)[C@H](C)[C@@H](O)[C@]1(C)O [V43, azithromycin] | variability enhancers | synergized | – | – | –
CC1=C(C(=O)O)N2C(=O)[C@@H](NC(=O)[C@H](N)c3ccc(O)cc3)[C@H]2SC1 [V40, cefadroxil] | variability enhancers | synergized | – | – | –
carboplatin [V71] | variability enhancers | – | – | synergized | –
CN(C)CCC(c1ccc(Cl)cc1)c1ccccn1 (centres unmarked) [V58, chlorpheniramine maleate] | – | synergized | variability enhancers | – | –
COc1cnc(NS(=O)(=O)c2ccc(N)cc2)nc1 [V41, sulfameter] | variability enhancers | synergized | – | – | –
colistin sulfate [V45] | variability enhancers | – | – | synergized | –
CC(=O)OCC(=O)[C@@]1(O)CC[C@H]2[C@@H]3CCC4=CC(=O)CC[C@]4(C)[C@@]3(F)[C@@H](O)C[C@@]21C [V96, fludrocortisone acetate] | – | synergized | variability enhancers | – | –
CCC(=O)O[C@]1(C(=O)CCl)[C@@H](C)C[C@H]2[C@@H]3CCC4=CC(=O)C=C[C@]4(C)[C@@]3(F)[C@@H](O)C[C@@]21C [V94, clobetasol propionate] | variability enhancers | synergized | – | – | –
acetophenazine maleate [V12] | – | synergized | variability enhancers | – | –
CCCc1nc2c(C)cc(-c3nc4ccccc4n3C)cc2n1Cc1ccc(-c2ccccc2C(=O)O)cc1 [V62, telmisartan] | variability enhancers | synergized | – | – | –
O=C(Nc1ccccc1)OCC(CN1CCCCC1)OC(=O)Nc1ccccc1 (centres unmarked) [V30, diperodon hydrochloride] | variability enhancers | synergized | – | – | –
COc1c(C)c2c(c(O)c1C/C=C(\C)CCC(=O)O)C(=O)OC2 [V95, mycophenolic acid] | variability enhancers | synergized | – | – | –
COc1ccccc1O [V92, guaiacol] | variability enhancers | synergized | – | – | –
CC(C)(C)NC(=O)[C@H]1CC[C@H]2[C@@H]3CC[C@H]4NC(=O)C=C[C@]4(C)[C@H]3CC[C@]12C [V37, finasteride] | variability enhancers | synergized | – | – | –
sucralfate [V79] | variability enhancers | synergized | – | – | –

Molecule | identified as variability enhancer (VE) in noise screen (HIV-1 LTR promoter; [2]) | synergy in reactivation of HIV-1 latency [1] | identified as variability enhancer (VE) in noise screen (HIV-1 LTR promoter) | synergy in reactivation of HIV-1 latency [1, 3] | identified as variability suppressor (VS) in noise screen (HIV-1 LTR promoter; Pharmakon 1600 library, 10 uM, 24 hours, FIG. 12)
COc1ccc(CCN(C)CCCC(C#N)(c2ccc(OC)c(OC)c2)C(C)C)cc1OC (racemic) [V24, (±)-Verapamil hydrochloride] | – | synergized | – | – | –
CCN(CC)CCNC(=O)c1ccc(N)cc1 [V38, Procainamide hydrochloride] | variability enhancers | synergized | – | – | –
CC(=O)Nc1c(I)cc(I)c(C(=O)O)c1I [V102, acetriazoic acid] | – | synergized | variability enhancers | – | –
NC(=O)C[S+]([O-])C(c1ccccc1)c1ccccc1 (centres unmarked) [V28, modafinil] | variability enhancers | synergized | – | – | –
Cc1cc(CC(=O)O)n(C)c1C(=O)c1ccc(Cl)cc1 [V31, zomepirac sodium] | variability enhancers | synergized | – | – | –
COc1ccc2c(c1)c(CC(=O)O)c(C)n2C(=O)c1ccc(Cl)cc1 [V18, Indomethacin] | variability enhancers | synergized | – | – | –
c1ccc2[nH]c(-c3cscn3)nc2c1 [V33, thiabendazole] | variability enhancers | synergized | – | – | –
C[N+]12CCC(CC1)C(OC(=O)C(O)(c1ccccc1)c1ccccc1)C2 (centres unmarked) [V49, clidinium bromide] | variability enhancers | synergized | – | – | –
Cc1cn[nH]c1 [V27, fomepizole hydrochloride] | variability enhancers | synergized | – | – | –
CC(C)NCC(O)c1ccc(O)c(O)c1.Cl (racemic) [V86, (±)-Isoproterenol hydrochloride] | – | synergized | variability enhancers | – | –
Oc1ccc(Cl)cc1 [V99, parachlorophenol] | – | synergized | variability enhancers | – | –
O=C(O)[C@H]1/C(=C/CO)O[C@@H]2CC(=O)N21 [V85, clavulanate lithium] | variability enhancers | synergized | – | – | –
CO[C@@]1(NC(=O)Cc2cccs2)C(=O)N2C(C(=O)O)=C(COC(N)=O)CS[C@@H]21 [V46, cefoxitin sodium] | variability enhancers | synergized | – | – | –
CNCCC(Oc1ccc(C(F)(F)F)cc1)c1ccccc1 (centres unmarked) [V50, Fluoxetine hydrochloride] | – | synergized | variability enhancers | – | –
CCN(C(C)=O)c1cccc(-c2ccnc3c(C#N)cnn23)c1 [V97, zaleplon] | variability enhancers | synergized | – | – | –
CC(C)[C@H](N)C(=O)OCC(CO)OCn1cnc2c(=O)nc(N)[nH]c21 (some centres unmarked) [V80, valganciclovir hydrochloride] | variability enhancers | synergized | – | – | –
N[C@@H](Cc1ccc(O)c(O)c1)C(=O)O [V78, levodopa] | variability enhancers | synergized | – | – | –
NNc1nncc2ccccc12 [V17, hydralazine hydrochloride] | – | synergized | variability enhancers | – | –
COc1cc(C(=O)NCc2ccc(OCCN(C)C)cc2)cc(OC)c1OC [V52, trimethobenzamide hydrochloride] | variability enhancers | synergized | – | – | –
Nc1ccc(S(=O)(=O)Nc2cnc3ccccc3n2)cc1 [V42, sulfaquinoxaline sodium] | variability enhancers | synergized | – | – | –
O=c1[nH]c(=O)n(Cl)c(=O)n1Cl [V63, troclosene potassium] | – | synergized | variability enhancers | – | –
CCN(CC)CC#CCOC(=O)C(O)(c1ccccc1)C1CCCCC1 (centres unmarked) [V48, oxybutynin chloride] | – | synergized | variability enhancers | – | –
COc1ccc(Cc2nccc3cc(OC)c(OC)cc23)cc1OC [Papaverine hydrochloride] | – | – | – | – | variability suppressors
